Data on 41 molecules can be found in US20130109693A1, “DERIVATIVES OF PYRIDO [3,2-D] PYRIMIDINE, METHODS FOR PREPARATION THEREOF AND THERAPEUTIC USES THEREOF” (UNIVERSITE D'ORLEANS, priority 2010, published 2013).

A value given as a limit tells only on which side of the number the result lay.

`OCCNc1nc(NCc2ccccc2)c2ncc(Cl)cc2n1` [Compound 82, 4-Benzylamino-7-chloro-2-(2-hydroxyethylamino)-pyrido[3,2-d]pyrimidine] had a melting point of 106 to 107 °C.

As for `Oc1ccccc1-c1ncc2ncc(Cl)cc2n1` [Compound 19, 7-Chloro-2-(2-hydroxyphenyl)-pyrido[3,2-d]pyrimidine], the melting point is 211 to 212 °C.

`COc1cccc(-c2nc(-c3ccccc3)c3ncc(-c4cccnc4)cc3n2)c1` [Compound 13, 2-(3-Methoxyphenyl)-4-phenyl-7-(3-pyridyl)-pyrido[3,2-d]pyrimidine] came in with a melting point of 134 to 135 °C.

On to `Oc1ccc(-c2ncc3ccc(-c4csc(CN5CCOCC5)c4)nc3n2)cc1` [Compound 79, 4-[7-(5-Morpholin-4-ylmethyl-thiophen-3-yl)-pyrido[2,3-d]pyrimidin-2-yl]-phenol], for which the melting point is more than 268 °C.

The molecule `COCOc1ccc(-c2ncc3ccc(-c4csc(CN5CCN(C)CC5)c4)nc3n2)cc1` [Compound 77, 2-(4-Methoxymethoxy-phenyl)-7-[5-(4-methyl-piperazin-1-ylmethyl)-thiophen-3-yl]-pyrido[2,3-d]pyrimidine] gave a melting point of more than 268 °C.

`Oc1ccc(-c2ncc3ncc(Nc4ccccn4)cc3n2)cc1` [Compound 57, 2-(4-Hydroxyphenyl)-7-(2-pyridinylamino)-pyrido[3,2-d]pyrimidine] gave a melting point of more than 268 °C.

In turn, `O=Cc1ccc(-c2cnc3cnc(-c4ccc(O)cc4)nc3c2)cc1` [Compound 42, 2-(4-Hydroxyphenyl)-7-(4-formylphenyl)-pyrido[3,2-d]pyrimidine] yielded a melting point of more than 268 °C.

In turn, `O=C1CCCN1c1cnc2cnc(-c3ccc(O)cc3)nc2c1` [Compound 72, 1-[2-(4-Hydroxy-phenyl)-pyrido[3,2-d]pyrimidin-7-yl]-pyrrolidin-2-one] registered a melting point of more than 268 °C.

Take `COc1cccc(-c2nc(-c3ccccc3)c3ncc(-c4csc5ccccc45)cc3n2)c1` [Compound 14, 7-(3-Benzothienyl)-2-(3-methoxyphenyl)-4-phenyl-pyrido[3,2-d]pyrimidine]: the melting point was in the range of 112 to 113 °C.

With `Oc1cccc(-c2ncc3ncc(Cl)cc3n2)c1` [Compound 18, 7-Chloro-2-(3-hydroxyphenyl)-pyrido[3,2-d]pyrimidine], the melting point is 252 to 253 °C.

Consider `O=C(Nc1cnc2cnc(-c3ccc(O)cc3)nc2c1)c1ccncc1` [Compound 71, N-[2-(4-Hydroxy-phenyl)-pyrido[3,2-d]pyrimidin-7-yl]isonicotinamide], for which the melting point was 230 to 232 °C.

With `N#Cc1ccc(-c2cnc3cnc(-c4ccc(O)cc4)nc3c2)cc1` [Compound 28, 2-(4-Hydroxyphenyl)-7-(4-cyanophenyl)-pyrido[3,2-d]pyrimidine], the melting point was 313 to 314 °C.

With `Oc1ccc(-c2ncc3ccc(-c4csc(CN5CCCCC5)c4)nc3n2)cc1` [Compound 78, 4-[7-(5-Piperidin-1-ylmethyl-thiophen-3-yl)-pyrido[2,3-d]pyrimidin-2-yl]-phenol], the melting point is more than 268 °C.

Turning to `COc1cccc(-c2nc(-c3ccccc3)c3ncc(-c4ccc(C(C)=O)cc4)cc3n2)c1` [Compound 9, 7-(4-Acetylphenyl)-2-(3-methoxyphenyl)-4-phenyl-pyrido[3,2-d]pyrimidine], the melting point was in the range of 133 to 134 °C.

The molecule `Oc1ccc(-c2cnc3cnc(-c4ccccc4O)nc3c2)cc1` [Compound 31, 2-(2-Hydroxyphenyl)-7-(4-hydroxyphenyl)-pyrido[3,2-d]pyrimidine] displayed a melting point of more than 268 °C.

`Oc1ccc(-c2ncc3ncc(-c4ccc(S)cc4)cc3n2)cc1` [Compound 27, 2-(4-Hydroxyphenyl)-7-(4-mercaptophenyl)-pyrido[3,2-d]pyrimidine] returned a melting point of 222 to 223 °C.

Regarding `COc1cccc(-c2nc(-c3ccccc3)c3ncc(-c4ccco4)cc3n2)c1` [Compound 12, 7-(2-Furyl)-2-(3-methoxyphenyl)-4-phenyl-pyrido[3,2-d]pyrimidine], the melting point was 131 to 132 °C.

With `O=C1CNCCN1c1cnc2cnc(-c3ccc(O)cc3)nc2c1` [Compound 70, 1-[2-(4-Hydroxy-phenyl)-pyrido[3,2-d]pyrimidin-7-yl]-piperazin-2-one], the melting point was more than 268 °C.

`Oc1ccc(-c2ncc3ncc(-c4ccoc4)cc3n2)cc1` [Compound 36, 2-(4-Hydroxyphenyl)-7-(3-furyl)-pyrido[3,2-d]pyrimidine] displayed a melting point of more than 268 °C.

As to `COc1ccc(-c2nc(-c3ccccc3)c3ncc(Cl)cc3n2)cc1` [Compound 5, 7-Chloro-2-(4-methoxyphenyl)-4-phenyl-pyrido[3,2-d]pyrimidine], the melting point was 193 to 194 °C.

`COc1cc(O)ccc1-c1cnc2cnc(-c3ccc(O)cc3)nc2c1` [Compound 43, 2-(4-hydroxyphenyl)-7-(2-methoxy-4-hydroxyphenyl)-pyrido[3,2-d]pyrimidine] registered a melting point of 207 to 208 °C.

The molecule `COc1ccc(-c2cnc3c(-c4ccccc4)nc(-c4cccc(OC)c4)nc3c2)cc1` [Compound 8, 2-(3-Methoxyphenyl)-7-(4-methoxyphenyl)-4-phenyl-pyrido[3,2-d]-pyrimidine] yielded a melting point of 147 to 148 °C.

In turn, `COc1cccc(-c2nc(-c3ccccc3)c3ncc(-c4cccs4)cc3n2)c1` [Compound 15, 2-(3-Methoxyphenyl)-4-phenyl-7-(2-thienyl)-pyrido[3,2-d]pyrimidine] gave a melting point of 140 to 141 °C.

Molecule `COc1ccccc1-c1nc(-c2ccccc2)c2ncc(Cl)cc2n1` [Compound 7, 7-Chloro-2-(2-methoxyphenyl)-4-phenyl-pyrido[3,2-d]pyrimidine] had a melting point of 116 to 117 °C.

In turn, `Oc1ccc(-c2ncc3ncc(Nc4ccncc4)cc3n2)cc1` [Compound 55, 2-(4-Hydroxyphenyl)-7-(4-pyridinylamino)-pyrido[3,2-d]pyrimidine] yielded a melting point of more than 268 °C.

Regarding `O=C1CCCCN1c1cnc2cnc(-c3ccc(O)cc3)nc2c1` [Compound 69, 1-[2-(4-Hydroxy-phenyl)-pyrido[3,2-d]pyrimidin-7-yl]-piperidin-2-one], the melting point was in the range of 268 to 270 °C.

With `OCCNc1nc(NCc2ccccc2)c2ncc(Nc3ncncn3)cc2n1` [Compound 88, 4-Benzylamino-2-(2-hydroxyethylamino)-7-(1,3,5-triazinylamino)-pyrido[3,2-d]pyrimidine], the melting point lay in the range of 202 to 203 °C.

In the case of `COCOc1ccc(-c2ncc3ccc(-c4csc(CN5CCOCC5)c4)nc3n2)cc1` [Compound 76, 2-(4-Methoxymethoxy-phenyl)-7-(5-morpholin-4-ylmethyl-thiophen-3-yl)-pyrido[2,3-d]pyrimidine], the melting point was more than 268 °C.

`Clc1cnc2c(-c3ccccc3)nc(-c3ccccc3)nc2c1` [Compound 4, 7-Chloro-2,4-diphenyl-pyrido[3,2-d]pyrimidine] displayed a melting point of 120 to 121 °C.

In the case of `OCc1cccc(-c2cnc3cnc(-c4ccc(O)cc4)nc3c2)c1` [Compound 45, 2-(4-Hydroxyphenyl)-7-(3-hydroxymethylphenyl)-pyrido[3,2-d]pyrimidine], the melting point was found to be 232 °C.

Turning to `Oc1ccc(-c2cnc3cnc(-c4cccc(O)c4)nc3c2)cc1` [Compound 30, 2-(3-Hydroxyphenyl)-7-(4-hydroxyphenyl)-pyrido[3,2-d]pyrimidine], the melting point is more than 268 °C.

In the case of `COCOc1ccc(-c2ncc3ncc(NC(=O)c4cccnc4)cc3n2)cc1` [Compound 65, N-[2-(4-Methoxymethoxy-phenyl)-pyrido[3,2-d]pyrimidin-7-yl]-nicotinamide], the melting point turned out to be 232 °C.

`COc1cccc(-c2nc(-c3ccccc3)c3ncc(Cl)cc3n2)c1` [Compound 6, 7-Chloro-2-(3-methoxyphenyl)-4-phenyl-pyrido[3,2-d]pyrimidine] yielded a melting point of 112 to 113 °C.

`COCOc1ccc(-c2ncc3ncc(Cl)cc3n2)cc1` [Compound 64, 7-Chloro-2-(4-methoxymethoxy-phenyl)-pyrido[3,2-d]pyrimidine] had a melting point of more than 268 °C.

Take `N#Cc1cccc(-c2cnc3cnc(-c4ccc(O)cc4)nc3c2)c1` [Compound 29, 2-(4-Hydroxyphenyl)-7-(3-cyanophenyl)-pyrido[3,2-d]pyrimidine]: the melting point is more than 268 °C.

`COCOc1ccc(-c2ncc3ncc(N4CCNCC4=O)cc3n2)cc1` [Compound 67, 1-[2-(4-Methoxymethoxy-phenyl)-pyrido[3,2-d]pyrimidin-7-yl]-piperazin-2-one]: the melting point fell in the range of 200 to 202 °C.

In the case of `COCOc1ccc(-c2ncc3ncc(N4CCCCC4=O)cc3n2)cc1` [Compound 66, 1-[2-(4-Methoxymethoxy-phenyl)-pyrido[3,2-d]pyrimidin-7-yl]-piperidin-2-one], the melting point fell in the range of 202 to 204 °C.

Molecule `Oc1ccc(Nc2cnc3cnc(-c4ccc(O)cc4)nc3c2)cc1` [Compound 58, 2-(4-Hydroxyphenyl)-7-(4-hydroxyphenylamino)-pyrido[3,2-d]pyrimidine] gave a melting point of 168 to 170 °C.

Regarding `O=Cc1cccc(-c2cnc3cnc(-c4ccc(O)cc4)nc3c2)c1` [Compound 44, 2-(4-Hydroxyphenyl)-7-(3-formylphenyl)-pyrido[3,2-d]pyrimidine], the melting point was determined as 266 °C.

`O=C(Nc1cnc2cnc(-c3ccc(O)cc3)nc2c1)c1cccnc1` [Compound 68, N-[2-(4-Hydroxy-phenyl)-pyrido[3,2-d]pyrimidin-7-yl]nicotinamide]: the melting point is 226 to 228 °C.

For `COCOc1ccc(-c2ncc3ccc(-c4csc(CN5CCCCC5)c4)nc3n2)cc1` [Compound 75, 2-(4-Methoxymethoxy-phenyl)-7-(5-piperidin-1-ylmethyl-thiophen-3-yl)-pyrido[2,3-d]pyrimidine], the melting point is more than 268 °C.
